Assays:
rats with heart failure = assay: Heart failure models of rats induced by coronary artery ligation; assay type: in vivo, Sprague Dawley rats; conditions: 30 mpk p.o bid, 28 days
Procedure: Sprague Dawley rats (SD rats), male, weight of about 220 g during modeling. Before operation, the animals were anesthetized by intraperitoneal injection of sodium pentobarbital injection, and atropine was injected intraperitoneally to eliminate phlegm. After the rat was anesthetized and fixed in supine position, a ventilator was used for assisted breathing, the chest was opened between the third and fourth ribs, and the left anterior descending coronary artery was ligated with a 5-0 suture needle. After the ligation was completed, the chest cavity was closed, the skin was sutured, and the rats were put in an insulation blanket for recovery. The same operation was performed on the sham group, except for the silk ligature operation. After the operation, the rats were subjected to intramuscular injection of meloxicam for pain relief, intraperitoneal injection of gentamicin sulfate injection for eliminating infection, and intraperitoneal injection of lidocaine for preventing ventricular fibrillation. One week after the animals recovered from surgery, the model rats were divided into a model group and a therapeutic drug group (compound 102 group), and the vehicle and compound 102 were administered by gavage, respectively, twice a day for four consecutive weeks. During the experiment, the living status of the animals were observed and abnormal conditions were recorded to evaluate the safety of the compound; and administration was performed for 28 days. The animals were anesthetized by intraperitoneal injection of sodium pentobarbital on the second day after the last administration, and echocardiographic detection and hemodynamic detection were performed to evaluate the effect of the compound on cardiac systolic function and ventricular volume. After the end of the experiment, end point treatment was performed, and the heart was taken for material collection for subsequent related researches on cGMP and protein expression. One week after the animals recovered from surgery, the rats were anesthetized with isoflurane, and a small animal ultrasound imaging system Vevo was used to examine the left ventricular function of the model rats. The model was considered successful if the LVEF % was reduced by 30%. Except for the sham group, the animals were randomly divided into 2 groups according to LVEF % and body weight. The number of animals in each group and the method of administration were as follows: [table] At the end of the experiment, rats were sacrificed and the infarct heart tissue was fixed with 4% formaldehyde, dehydrated, embedded in paraffin, and sectioned. Collagen deposition status was observed under a microscope by means of using Sirius red staining, and the Leica aperio digital slice scanning system was used for scanning analysis. The main evaluation indexes are LVEF % (left ventricular ejection fraction), FS (left ventricular fractional shortening), ESV (left ventricular end-systolic volume), EDV (left ventricular end-diastolic volume), and heart rate (HR). At the end of the experiment, the proportion of Sirius red in peri-infarction zone was quantified to evaluate the collagen deposition status. The data was represented by Mean±S.E.M, and Graphpad Prism 5.0 was used for statistical mapping. Statistical analysis was performed with T-test.

[1] = system: HEK293T cells double transfected with human PDE9A2 and natriuretic peptide protein receptor 1 (NPR1); assay: Effect on cGMP content in transiently transfected HEK293T cells (ANF-stimulated, cGMP ELISA); assay type: cell-based; conditions: ANF 1 μM; compound 0.12-30 μM; FIG. 1
Procedure: Cell name: Human embryonic kidney cell HEK293T
HEK293T cells were plated in a 6-well plate at 2×10^6 cells/well and cultured for 6 h to allow for adherence of cells.
The medium of each well was changed to 1.5 mL DMEM complete medium;
Non-transfected wells: An equal volume of DMEM complete medium (700 μL DMEM complete medium) was added to non-transfected wells.
The medium was aspirated from each well. The cells were washed once with PBS, and 250 μL of 0.5 M perchloric acid was added.
The cells were collected with a cell scraper, and transferred into a 1.5 mL centrifuge tube. After homogeneously mixing by vortex, the cells were centrifuged at 6000 g for 20 min at 4° C. […]
The plate was washed thoroughly 5 times, then 200 μL of Ellman's Reagent was added to each well. The plate was sealed, shaken in the dark, and color-developed for 60 min, and then detected for absorbance value at 412 nm.
Firstly, the non-specific binding (the reading of each well minus the reading of the NSB well) was subtracted, and then B/B0 was calculated, that is, the ratio of the binding of the sample or standard to the maximum binding, and converted according to the following formula, and then the obtained logit(B/B0) and lg (compound concentration) were subjected to linear regression analysis to obtain a standard curve. logit(B/B0)=ln[B/B0/(1−B/B0)] […]

Question: How did the “Percentage (%) of collagen deposition in the peri-infarction zone” value (rats with heart failure; Mean ± S.E.M, Sirius red staining, P<0.001 vs model group) turn out when CCc1cc2c(N3CCC(C)(OC)CC3)c(C#N)c(=O)[nH]c2cn1 [Compound 102, 6-ethyl-4-(4-methoxy-4-methylpiperidin-1-yl)-2-oxo-1,2-dihydro-1,7-diazanaphthalene-3-carbonitrile] was run?
Answer: 21.5 ± 1.234 %

Question: And the “collagen deposition in the peri-infarction zone (in words)” value (rats with heart failure; compared with model group P<0.001)?
Answer: significantly reduce

Question: And the “LVEF (left ventricular ejection fraction)” value (rats with heart failure; vs model group P<0.001, FIG. 3)?
Answer: improve the reduction

Question: And the “FS (left ventricular fractional shortening)” value (rats with heart failure; vs model group P<0.001, FIG. 4)?
Answer: improve the reduction

Question: What about the “ESV (left ventricular end-systolic volume)” value (rats with heart failure; vs model group P<0.01, FIG. 5) of the same compound?
Answer: significant improvement effect

Question: What about the “EDV (left ventricular end-diastolic volume)” value (rats with heart failure; vs model group P<0.05, FIG. 6) of the same compound?
Answer: significant improvement effect

Question: And the “cGMP content in HEK293T cells” value [1]?
Answer: Up-regulation effect
